Measured values from article PMC8443589, “Modelling human liver fibrosis in the context of non-alcoholic steatohepatitis using a microphysiological system” (Communications Biology, 2021).

What was measured:
Format in all cases: cell-based, human
[1] = tested on: liver MPS NASH model (PHH, KC and HSC co-cultures); assay: Cue study: secreted cytokines and chemokines (Luminex) with varying NPC number and added cues (Fig 5a, 5b)
From the text: There is only limited understanding of the pathogenic drivers of NASH and their interaction, principally due to a lack of translational models that are amenable to detailed molecular analysis[2],[34]. Here, a systems biology ‘cue-signal-analysis’ paradigm[35],[36] was utilised to produce large factorial datasets to enable the identification of molecular pathways of importance. […] To create varying set ups of the NASH microtissues we created hepatocyte microtissues in the MPS with high numbers of NPC (60,000 KC and HSC—equivalent to 10% of microtissue population) and low numbers of NPCs (6000 KC and HSC—equivalent to 1% of microtissue), representing physiological and non-physiological cell ratios respectively. Next, we took these different microtissues and cultured them in media with or without FFA. Finally, we supplemented the media with lipopolysaccharide (LPS), TGFβ, fructose or cholesterol either as single ‘cues’, in pairs or all together (Fig. 4a). ‘Cues’ were selected for clinical association with NASH. LPS, is a pleiotropic inflammatory molecule, it is proposed to reach the liver via the hepatic portal vein after release from the gastrointestinal tract, contributing to disease progression[37],[38]. TGFβ has been extensively studied in relation to fibrosis due to its regulation of genes controlling collagen and matrix-modifying enzymes. Fructose is a key substrate for de-novo lipogenesis, a process that has been identified as a key event in lipid accumulation within NAFLD patients. Finally, cholesterol accumulation has also been linked to NASH disease aetiology.
Assessment of gene expression changes was supplemented by assessment of the secretome produced by NASH microtissues in the MPS after exposure to the various cues. Increased pro-inflammatory cytokine secretion is a defining characteristic in NASH patients, so we conducted a Luminex cytokine array covering 42 different biomarkers, cytokines and chemokines secreted into the culture media of the different microtissues at multiple time points. […]

[2] = tested on: liver MPS NASH model (PHH, KC and HSC co-cultures); assay: Cue study: pro-fibrotic biomarkers TIMP-1, pro-collagen 1, fibronectin (Fig 5c); conditions: fat medium + cue
From the text: Assessment of gene expression changes was supplemented by assessment of the secretome produced by NASH microtissues in the MPS after exposure to the various cues. Increased pro-inflammatory cytokine secretion is a defining characteristic in NASH patients, so we conducted a Luminex cytokine array covering 42 different biomarkers, cytokines and chemokines secreted into the culture media of the different microtissues at multiple time points. We consistently detected 27 out of the 42 biomarkers and observed that there was differential expression of cytokines and chemokines driven by the different cues applied to the micro-tissue (Fig. 5a, b). The LPS cue and the presence of higher NPC numbers were responsible for driving the largest increase in cytokine and chemokine release, with the largest increases in cytokines measured on day 14 (Fig. 5b). […] Similarly, to the cytokine production, these changes were not further enhanced by combining cues, as all the cue combinations containing TGFβ had the highest expression (Supp. Fig. 17c).
Fig. 5 Systems biology interrogation of liver MPS NASH model to determine physiologically relevant cues that promote soluble biomarker changes to mimic advanced NASH disease state. PHH, KC and HSC co-cultures were cultured in the MPS platform under a variety of conditions for 14 days to test number of NPCs, presence of fat, fructose, cholesterol, LPS and TGFβ for effects on the soluble biomarker profile of the liver MPS NASH model. Expression of biomarkers, cytokines and chemokines were compared, all concentrations were normalised by Z-transformation to allow comparison and shown relative to mean for each marker (white = not detected). a Cytokine expression compared with varying levels of NPCs; b for the high NPC group in the presence of additional cues; c Expression of pro-fibrotic biomarkers with varying NPC content and with additional varying cues in high NPC condition (additional data in Supp. Fig. 17). d Graphical summary of the changes that occur in the NASH model in the presence of Fat and Fat + TGFβ. All data were generated from a minimum of three independent replicate samples per condition.
The MPS LC12 plates consists of 12 individual bioreactors that contain pneumatically driven micro-pumps to recirculate cell culture medium through a collagen-coated scaffold. Cells were cultured using the protocol previously described[20],[21], but briefly, PHH were seeded at a density of 6 × 10^5 viable cells per well on the LC12 plates with each NPC population (KC and/or HSC) at a density of 6 × 10^4 viable cells per well. Each well contained a final volume of 1.6 mL of medium per well and maintained under a flow rate of 1.0 µL/s. Cells were seeded in Williams E medium containing primary hepatocyte thawing and plating supplements (Life Technologies, USA) and cultured initially under downward flow for 8 h before the flow was automatically reversed to upward flow for the next 16 h of culture. Microtissues were then cultured in either HEP-Lean or HEP-Fat medium, both media’s are proprietary to CN Bio Innovations Ltd. The HEP-Fat medium is a derivative of the HEP-LEAN medium and contains a mixture of saturated and unsaturated FFAs, as well as physiologically relevant quantities of insulin and sugars. Complete media changes were performed on all wells every 48–72 h. For certain experiments, the media was supplemented with additional additives from day 4 onwards: 1 ng/ml LPS (lipopolysaccharides from Escherichia coli O111:B4) (Sigma Aldrich, UK), 1 ng/ml recombinant TGF beta 1 protein (Abcam, UK); 500 µM Fructose (Sigma Aldrich, UK), 50 µg/ml Cholesterol (Sigma Aldrich, UK). […]

[3] = tested on: liver MPS NASH model (PHH, KC and HSC co-cultures); assay: Cue study: albumin production (ELISA)

Structure (SMILES): CC(C)CCC[C@@H](C)[C@H]1CC[C@H]2[C@@H]3CC=C4C[C@@H](O)CC[C@]4(C)[C@H]3CC[C@]12C [Cholesterol]
- EGF relative expression (z-transformation) ([1]; Day 6, Fat media + cue): -2.017
- Eotaxin relative expression (z-transformation) ([1]; Day 6, Fat media + cue): -0.7967
- FGF-2 relative expression (z-transformation) ([1]; Day 6, Fat media + cue): -0.2249
- Fit-3L relative expression (z-transformation) ([1]; Day 6, Fat media + cue): -1.968
- Fractalkine relative expression (z-transformation) ([1]; Day 6, Fat media + cue): -1.501
- G-CSF relative expression (z-transformation) ([1]; Day 6, Fat media + cue): -0.1828
- GM-CSF relative expression (z-transformation) ([1]; Day 6, Fat media + cue): -0.6958
- GRO relative expression (z-transformation) ([1]; Day 6, Fat media + cue): -0.8479
- IFN-a2 relative expression (z-transformation) ([1]; Day 6, Fat media + cue): -1.086
- IL-1RA relative expression (z-transformation) ([1]; Day 6, Fat media + cue): -1.579
- IL-4 relative expression (z-transformation) ([1]; Day 6, Fat media + cue): -1.537
- IL-6 relative expression (z-transformation) ([1]; Day 6, Fat media + cue): -0.8492
- IL-7 relative expression (z-transformation) ([1]; Day 6, Fat media + cue): -1.138
- IL-8 relative expression (z-transformation) ([1]; Day 6, Fat media + cue): -1.037
- IL-15 relative expression (z-transformation) ([1]; Day 6, Fat media + cue): -1.447
- IP-10 relative expression (z-transformation) ([1]; Day 6, Fat media + cue): -1.086
- MCP-1 relative expression (z-transformation) ([1]; Day 6, Fat media + cue): -1.585
- MCP-3 relative expression (z-transformation) ([1]; Day 6, Fat media + cue): -1.263
- MDC relative expression (z-transformation) ([1]; Day 6, Fat media + cue): -0.4545
- MIP-1a relative expression (z-transformation) ([1]; Day 6, Fat media + cue): -0.7293
- MIP-1b relative expression (z-transformation) ([1]; Day 6, Fat media + cue): -0.9104
- TNFa relative expression (z-transformation) ([1]; Day 6, Fat media + cue): -0.774
- VEGF relative expression (z-transformation) ([1]; Day 6, Fat media + cue): -0.01821
- EGF relative expression (z-transformation) ([1]; Day 11, Fat media + cue): 1.504
- Eotaxin relative expression (z-transformation) ([1]; Day 11, Fat media + cue): -0.8044
- FGF-2 relative expression (z-transformation) ([1]; Day 11, Fat media + cue): 0.794
- Fractalkine relative expression (z-transformation) ([1]; Day 11, Fat media + cue): -1.145
- G-CSF relative expression (z-transformation) ([1]; Day 11, Fat media + cue): -0.8882
- GRO relative expression (z-transformation) ([1]; Day 11, Fat media + cue): -1.084
- IFN-a2 relative expression (z-transformation) ([1]; Day 11, Fat media + cue): -0.9638
- IL-1RA relative expression (z-transformation) ([1]; Day 11, Fat media + cue): -1.623
- IL-4 relative expression (z-transformation) ([1]; Day 11, Fat media + cue): -1.08
- IL-6 relative expression (z-transformation) ([1]; Day 11, Fat media + cue): -0.9589
- IL-7 relative expression (z-transformation) ([1]; Day 11, Fat media + cue): -0.957
- IL-8 relative expression (z-transformation) ([1]; Day 11, Fat media + cue): -1.364
- IL-15 relative expression (z-transformation) ([1]; Day 11, Fat media + cue): -1.997
- IP-10 relative expression (z-transformation) ([1]; Day 11, Fat media + cue): -1.199
- MCP-1 relative expression (z-transformation) ([1]; Day 11, Fat media + cue): -2.479
- MCP-3 relative expression (z-transformation) ([1]; Day 11, Fat media + cue): -1.098
- MDC relative expression (z-transformation) ([1]; Day 11, Fat media + cue): -1.98
- MIP-1a relative expression (z-transformation) ([1]; Day 11, Fat media + cue): -0.8147
- MIP-1b relative expression (z-transformation) ([1]; Day 11, Fat media + cue): -0.9274
- VEGF relative expression (z-transformation) ([1]; Day 11, Fat media + cue): -1.0705
- Eotaxin relative expression (z-transformation) ([1]; Day 14, Fat media + cue): -0.1613
- FGF-2 relative expression (z-transformation) ([1]; Day 14, Fat media + cue): -0.6319
- Fractalkine relative expression (z-transformation) ([1]; Day 14, Fat media + cue): -0.3551
- G-CSF relative expression (z-transformation) ([1]; Day 14, Fat media + cue): -1.591
- GM-CSF relative expression (z-transformation) ([1]; Day 14, Fat media + cue): -1.001
- GRO relative expression (z-transformation) ([1]; Day 14, Fat media + cue): -0.8633
- IFN-a2 relative expression (z-transformation) ([1]; Day 14, Fat media + cue): -1.669
- IL-1RA relative expression (z-transformation) ([1]; Day 14, Fat media + cue): -1.544
- IL-4 relative expression (z-transformation) ([1]; Day 14, Fat media + cue): -1.577
- IL-6 relative expression (z-transformation) ([1]; Day 14, Fat media + cue): -0.7817
- IL-7 relative expression (z-transformation) ([1]; Day 14, Fat media + cue): -1.113
- IL-8 relative expression (z-transformation) ([1]; Day 14, Fat media + cue): -1.061
- IL-15 relative expression (z-transformation) ([1]; Day 14, Fat media + cue): -1.074
- IP-10 relative expression (z-transformation) ([1]; Day 14, Fat media + cue): -0.9907
- MCP-1 relative expression (z-transformation) ([1]; Day 14, Fat media + cue): -1.142
- MCP-3 relative expression (z-transformation) ([1]; Day 14, Fat media + cue): -1.036
- MDC relative expression (z-transformation) ([1]; Day 14, Fat media + cue): -1.936
- MIP-1a relative expression (z-transformation) ([1]; Day 14, Fat media + cue): -0.7839
- MIP-1b relative expression (z-transformation) ([1]; Day 14, Fat media + cue): -0.9403
- TNFa relative expression (z-transformation) ([1]; Day 14, Fat media + cue): -0.8637
- VEGF relative expression (z-transformation) ([1]; Day 14, Fat media + cue): 3.004
- TNFα ([1]; day 14): greatest increase
- Fibronectin (Fold change in cytokine production compared to control) ([2]; Day 6, high NPC): 0.5839
- Pro-collagen 1 (Fold change in cytokine production compared to control) ([2]; Day 6, high NPC): -0.1232
- TIMP-1 (Fold change in cytokine production compared to control) ([2]; Day 6, high NPC): -0.5668
- Fibronectin (Fold change in cytokine production compared to control) ([2]; Day 11, high NPC): 0.3927
- Pro-collagen 1 (Fold change in cytokine production compared to control) ([2]; Day 11, high NPC): 0.4365
- TIMP-1 (Fold change in cytokine production compared to control) ([2]; Day 11, high NPC): -0.1305
- Fibronectin (Fold change in cytokine production compared to control) ([2]; Day 14, high NPC): -0.4332
- Pro-collagen 1 (Fold change in cytokine production compared to control) ([2]; Day 14, high NPC): 0.3527
- TIMP-1 (Fold change in cytokine production compared to control) ([2]; Day 14, high NPC): -0.3247
- Albumin production [3]: to a lesser extent
